# Measured values from patent EP0270692A1, “ANTIARRHYTHMIC AGENT” (KYOWA HAKKO KOGYO CO., LTD., priority 1986, dated 1988).
# Structures can show the parent of a compound that is named as a salt. Where two headings read alike, the source gives them in different places.
# Legend:
# [1] = test system: chloroform-induced ventricular arrhythmias; assay: Mouse chloroform-induced ventricular arrhythmias test; format: in vivo, DD-strain mice; conditions: for Anti-arrhythmic Activity: 100 mg/kg orally, effective when two or more of three examples kept 720 or less heart beat/min for 30 seconds
# Protocol: Antiarrhythmic activity was examined according to mouse chloroform-induced ventricular arrhythmias test.
# DD-strain mice weighing 18 -22 g were abstinent from food and water for 4-5 hours and antiarrhythmic activity was examined according to the Block's method [Life Science 28, 2623 (1981)]. Drugs tested were orally administered (100 mg/kg) and the mice were exposed to chloroform. After stop of respiration, electrocardiogram was measured according to standard limb leading method. The case where 720 or less heart beat/min was maintained for 30 seconds was regarded as effective.
# The test compound was judged as being effective when two or more examples were effective among three examples.
# left atrium [2] = assay: Prolongation of effective refractory period in excised left atrium; parameters: species or system Male Hartley-strain guinea pigs; conditions: Cavia porcellus; guinea pig left atrium in Krebs-Henseleit solution, 31 ± 1°C; read-out: The concentration required to prolong effective refractory period by 30%
# Excerpt: (§1) In Table 2, Test Nos. 1 and 4 are tests on antiarrhythmic activity and Test No. 3, on anticholine activity and Test No. 5, on side effect. What is meant by the small ratio of Test No. 1 to that of Test No. 3 and the small ratio of Test No. 4 to that of Test No. 5 is that the compound has high therapeutic ratio (wide safety margin).
# left atrium [3] = assay: Reduction of amplitude of myocardial contractile force in excised left atrium; parameters: species or system Male Hartley-strain guinea pigs
# Excerpt: In Table 2, Test Nos. 1 and 4 are tests on antiarrhythmic activity and Test No. 3, on anticholine activity and Test No. 5, on side effect.
# male dd-strain mice = assay: Test for acute toxicity (MLD; LD50); conditions: mouse, in vivo
# Protocol: (§2) Groups of 5 male dd-strain mice weighing 20 ±1 g were used. The test compounds were administered either orally (0.3 mg/kg) or intraperitoneally (0.1 mg/kg).
# (§3) The MLD (minimum lethal dose) was determined by observing the mortality for 7 days after the administration.
# [4] = Test for acute toxicity (MLD; LD50); conditions: mouse, in vivo
# Protocol: as §2, §3
# pupil size = assay: Mydriasis activity test (anticholine activity); format: in vivo, Male dd-strain mice; conditions: oral; dose required to double the pupil size 30 minutes after administration
# Excerpt: as §1
Compound,Anti-arrhythmic Activity [1],EC30 (left atrium [2]),"The concentration required to reduce the amplitude of myocardial contractile force by 30% (left atrium [3]; guinea pig left atrium in Krebs-Henseleit solution, 31 ± 1°C)",5/4 (ratio) (left atrium [3]; ratio of Test No. 5 (contractile force) to Test No. 4 (refractory period)),Acute Toxicity MLD i.p. (male dd-strain mice; ip),Acute Toxicity MLD p.o. (male dd-strain mice; po),"LD50 at 72 h ([4]; iv, read-out: Acute toxicity test LD50 iv)","LD50 at 72 h ([4]; po, read-out: Acute toxicity test LD50 po)",Mydriasis activity test ED100 (pupil size),"ED50 ([1]; mouse, oral, read-out: Chloroform-induced ventricular antiarrhythmic activity test ED50)"
"CCN(CC)CCNC1c2cc(C)ccc2OCc2ncccc21 (centres unmarked) [5-[2-diethylamino)-ethyl]amino-7-methyl-5,11-dihydro[1]benz-oxepino[3,4-b]pyridine, reference compound]",^*3 Ineffective,–,–,–,–,–,–,–,–,–
CCN(CC)CCNC1c2cc(OC)ccc2OCc2ncccc21 (centres unmarked) [1.5 Fumarate of Compound 1],Effective,4.9 µg/mL,110 µg/mL,22.4,more than 100 mg/kg,more than 300 mg/kg,93 mg/kg,> 1000 mg/kg,235 mg/kg,80 mg/kg
